Values of other authors in PMC12260505, “First-in-Human Phase I/IIa Study of the First-in-Class CDK2/4/6 Inhibitor PF-06873600 Alone or with Endocrine Therapy in Patients with Breast Cancer” (Clinical Cancer Research, 2025).

Test system: HR+/HER2− mBC, post-ET patient population
Settings: palbociclib and fulvestrant, PALOMA3; cited from earlier work

## CC(=O)c1c(C)c2cnc(Nc3ccc(N4CCNCC4)cn3)nc2n(C2CCCC2)c1=O [palbociclib]
  Median PFS: 9.5 months
  ORR: 24.6%
